Measurements from article PMC12199309, “Isolation, structural elucidation, and integrated biological and computational evaluation of antidiabetic labdane diterpenes from Curcuma zedoaria rhizomes” (RSC Advances, 2025).
Read-outs that look alike come from different tables or passages of the source.

How the values were obtained:
[1] = target: T1, α-Glucosidase (EC 3.2.1.20) (Saccharomyces cerevisiae, UniProt P53341); assay: biochemical; details: read-out: Inhibition rate (%)
T1 construct: purchased Sigma Chemical Co. (St. Louis, MO, USA)

[2] = target: T1, α-Glucosidase (EC 3.2.1.20); assay: biochemical; details: for inhibition at 25 µM / inhibition at 50 µM / inhibition at 100 µM / inhibition at 10 µM / inhibition at 1 µM / inhibition at 2.5 µM / inhibition at 5 µM: read-out: Inhibition rate (%)
Method: Five isolated compounds were examined to assess their inhibitory effect on α-glucosidase at concentrations ranging from 1 to 100 μM. […]
Optical values were conducted on a Shimadzu UV-1800 spectrophotometer (Shimadzu Pte., Ltd, Singapore). IR spectra were measured with a Shimadzu IR-408 infrared spectrometer (Shimadzu Pte., Ltd, Singapore). NMR spectra were acquired on a Bruker Avance III 500 spectrometer Bruker BioSpin AG, Bangkok, (Thailand), with chemical shifts (δ) referenced to deuterated solvents. HR-ESI-MS data were obtained on Bruker micrOTOFQII mass spectrometer (Bruker Singapore Pte., Ltd, Singapore). Column chromatography utilized silica gel 60 (0.06–0.2 mm; Scharlau, Barcelona, Spain) and LiChroprep RP-18 (40–63 μm; Merck KGaA, Darmstadt, Germany). Thin-layer chromatography (TLC) employed Kieselgel 60 F254 or RP-18 F254 plates from Merck KGaA (Darmstadt, Germany). α-Glucosidase (EC 3.2.1.20), derived from Saccharomyces cerevisiae (750 UN), along with p-nitrophenyl-α-D-glucopyranoside, was procured from Sigma Chemical Co. (St. Louis, MO, USA). […] All other chemicals and solvents were of the highest purity or analytical grade.
The inhibitory activity of α-glucosidase was assessed using a modified method based on Kurihara et al.[37] The reaction was initiated by adding 50 μL of 1.5 mM p-nitrophenyl-α-D-glucopyranoside and 50 μL of 0.1 U mL^−1 α-glucosidase in 0.01 M phosphate buffer (pH 7.0) to 625 μL of sample solution. The reaction was conducted at 37 °C for 30 minutes and terminated with 0.1 M Na2CO3. Enzymatic activity was quantified by measuring absorbance at a wavelength of 401 nm. One unit of α-glucosidase activity was defined as the amount of enzyme that liberates […] p-nitrophenol per minute. The IC50 value represented the inhibitor concentration that suppressed 50% of enzyme activity.

[3] = α-glucosidase inhibition, 37 °C, 30 minutes, pH 7.0, read-out: IC50

T1 sequence (P53341 whole entry): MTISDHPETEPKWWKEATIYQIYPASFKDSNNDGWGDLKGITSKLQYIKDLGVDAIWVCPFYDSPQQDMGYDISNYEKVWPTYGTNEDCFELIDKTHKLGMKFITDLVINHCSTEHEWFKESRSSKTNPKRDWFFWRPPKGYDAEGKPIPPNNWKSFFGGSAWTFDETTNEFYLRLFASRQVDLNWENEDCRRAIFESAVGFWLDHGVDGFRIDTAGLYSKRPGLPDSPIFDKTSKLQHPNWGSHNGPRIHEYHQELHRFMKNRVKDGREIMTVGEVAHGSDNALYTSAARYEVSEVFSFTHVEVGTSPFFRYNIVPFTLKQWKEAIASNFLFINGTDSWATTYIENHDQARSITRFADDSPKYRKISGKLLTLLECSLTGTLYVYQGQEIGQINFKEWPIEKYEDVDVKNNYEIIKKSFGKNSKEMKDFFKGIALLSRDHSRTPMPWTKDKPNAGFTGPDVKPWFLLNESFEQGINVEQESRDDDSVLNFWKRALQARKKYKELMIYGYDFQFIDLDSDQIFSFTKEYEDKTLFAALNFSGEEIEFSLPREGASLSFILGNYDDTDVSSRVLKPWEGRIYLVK

SMILES | inhibition at 250 µM [1] [%] | inhibition at 25 µM [2] [%] | inhibition at 50 µM [2] [%] | inhibition at 100 µM [2] [%] | IC50 [2] [µM] | inhibition at 10 µM [2] [%] | inhibition at 1 µM [2] [%] | inhibition at 2.5 µM [2] [%] | inhibition at 5 µM [2] [%] | IC50 [2, 3] [µM]
C[C@H]1O[C@H](O[C@H]2[C@H](O)[C@@H](O)[C@@H](O[C@H]3[C@H](O)[C@@H](O)C(O)O[C@@H]3CO)O[C@@H]2CO)[C@H](O)[C@@H](O)[C@@H]1N[C@H]1C=C(CO)[C@@H](O)[C@H](O)[C@H]1O (some centres unmarked) [PC, acarbose, reference compound] | 66 ± 1.2 | 8.6 ± 1.1 | 19.7 ± 1.3 | 32.1 ± 1.7 |  |  |  |  |  | 
C=C1CCC2C(C)(C)CCCC2(C)C1C=CC(=O)O (centres unmarked) [CZ5, (E)-14,15,16-trinorlabda-8(17),11-dien-13-oic acid] |  | 16.6 ± 3.8 | 75.8 ± 4.4 | 99.8 ± 0.2 | 37.6 | 3.5 ± 3.6 |  |  |  | 
C=C1CC[C@H]2C(C)(C)CCC[C@]2(C)[C@H]1CCC1=CC(O)OC1=O (some centres unmarked) [CZ4, coronarin C] |  |  |  |  |  | 95.4 ± 1.5 | 13.7 ± 5.4 | 34 ± 0.9 | 81 ± 1.7 | 3
C=C1CCC2C(C)(C)CCCC2(C)C1CC=C(COC(C)=O)C(=O)O (centres unmarked) [CZ1, zedolabdin A] |  | 81.4 ± 0.5 | 96.2 ± 0.4 | 98.8 ± 0.4 | 14.1 | 29.5 ± 1.8 |  |  |  | 
C=C1CC[C@H]2C(C)(C)CCC[C@]2(C)[C@H]1/C=C/C1=C(O)COC1=O [CZ3, zerumin] |  |  |  |  |  | 73.4 ± 2.3 | 6.9 ± 4 | 20.8 ± 3.6 | 35.2 ± 1.9 | 6.2
C=C1CCC2C(C)(C)CCCC2(C)C1CC=C(CO)C(=O)O (centres unmarked) [CZ2, (E)-14-hydroxy-15-norlabda-8(17),12-dien-16-oic acid] |  | 46.3 ± 3.1 | 72.4 ± 2 | 99.1 ± 2 | 25.5 | 24.6 ± 4.1 |  |  |  | 
